According to ChEMBL document CHEMBL3784991, “Design, synthesis and evaluation of novel HIV-1 NNRTIs with dual structural conformations targeting the entrance channel of the NNRTI binding pocket” (Eur J Med Chem, 2016):
Counter-ions that a name gives are not always drawn.

What was measured:
[1] = test system: Human immunodeficiency virus 1; assay: Antiviral activity against wild type HIV1 3B infected in human MT4 cells assessed as cell viability after 4 days by MTT assay; format: functional, organism-based; details: Human immunodeficiency virus 1, 3B, MT4, 96 h
[2] = Cytotoxicity against mock infected human MT4 cells after 4 days by MTT assay; format: cell-based
[3] = Selectivity index, ratio of CC50 for mock infected human MT4 cells to EC50 for HIV1 3B infected in human MT4 cells; format: toxicity, cell-based; details: read-out: Ratio CC50/EC50
[4] = test system: Human immunodeficiency virus 2; assay: Antiviral activity against HIV2 ROD infected in human MT4 cells assessed as cell viability after 4 days by MTT assay; format: functional, organism-based; details: Human immunodeficiency virus 2, ISOLATE ROD, MT4, 96 h
[5] = Selectivity index, ratio of CC50 for mock infected human MT4 cells to EC50 for HIV2 ROD infected in human MT4 cells; format: toxicity, cell-based; details: read-out: Ratio CC50/EC50
[6] = test system: Human immunodeficiency virus 1; assay: Antiviral activity against HIV1 RES056 harboring reverse transcriptase K103N/[…] double mutant infected in human MT4 cells assessed as cell viability after 4 days by MTT assay; format: functional, organism-based; details: Human immunodeficiency virus 1, RES056, MT4, 96 h
[7] = Selectivity index, ratio of CC50 for mock infected human MT4 cells to EC50 for HIV1 RES056 harboring reverse transcriptase K103N/[…] double mutant infected in human MT4 cells; format: toxicity, cell-based; details: read-out: Ratio CC50/EC50
[8] = biological target: Human immunodeficiency virus type 1 reverse transcriptase (Human immunodeficiency virus 1, UniProt Q72547); assay: Inhibition of wild type HIV1 Reverse transcriptase assessed as reduction of biotin deoxyuridine triphosphate incorporation into the wild type HIV1 reverse transcriptase after 1 hr by ELISA
[9] = test system: Human immunodeficiency virus 1; assay: Potency index, ratio of nevirapine EC50 to compound EC50 for HIV1 3B infected in human MT4 cells; format: functional

| Structure (SMILES) | EC50 [1] [µM] | CC50 at 96 h [2] [µM] | selectivity ratio [3] | EC50 [4] [µM] | selectivity ratio [5] | EC50 [6] [µM] | selectivity ratio [7] | IC50 [8] [µM] | Ratio EC50 [9] |
| --- | --- | --- | --- | --- | --- | --- | --- | --- | --- |
| Cc1cccc(Nc2cc(Oc3c(C)cc(C)cc3C)nc(Nc3cccc(C#N)c3)n2)c1 | > 25.8 | 25.8 | < 1 | > 25.8 | < 1 | – | – | – | – |
| Cc1ccc(Nc2nc(Nc3cccc(C)c3)cc(Oc3c(C)cc(C#N)cc3C)n2)cc1 | > 17.4 | 17.3 | < 1 | > 17.4 | < 1 | – | – | – | – |
| Cc1cccc(Nc2cc(Oc3c(C)cc(C)cc3C)nc(Nc3ccc(C#N)cc3)n2)c1 | > 24.1 | 24.1 | < 1 | > 24.1 | < 1 | > 24.1 | < 1 | – | – |
| Cc1ccc(Nc2nc(Nc3ccc(C#N)cc3)cc(Oc3c(C)cc(C#N)cc3C)n2)cc1 | > 8.53 | 8.53 | < 1 | > 8.53 | < 1 | – | – | – | – |
| Cc1ccc(Nc2nc(Nc3cccc(C)c3)cc(Oc3c(C)cc(C)cc3C)n2)cc1 | > 51 | 51 | < 1 | > 51 | < 1 | – | – | – | – |
| Cc1cccc(Nc2cc(Oc3c(C)cc(C#N)cc3C)nc(Nc3ccc(C#N)cc3)n2)c1 | 0.82 | 2.96 | 4 | > 2.96 | < 1 | > 2.96 | < 1 | – | – |
| Cc1cc(C)c(Oc2cc(Nc3ccc(C#N)cc3)nc(Nc3cccc(C#N)c3)n2)c(C)c1 | > 5.38 | 5.38 | < 1 | > 5.38 | < 1 | – | – | – | – |
| Cc1cc(C)c(Oc2cc(Nc3ccc(Cl)cc3)nc(Nc3ccc(C#N)cc3)n2)c(C)c1 | ≥ 1.62 | 6.68 | ≤ 4 | > 6.67 | < 1 | > 6.67 | < 1 | – | – |
| Cc1cc(C#N)cc(C)c1Oc1cc(Nc2ccc(Cl)cc2)nc(Nc2ccc(C#N)cc2)n1 | 0.79 | 3.28 | 4 | > 3.28 | < 1 | > 3.28 | < 1 | – | – |
| O=C1Nc2ccc(Cl)cc2[C@@](C#CC2CC2)(C(F)(F)F)O1 [EFAVIRENZ] | – | > 6.34 | > 1210 | – | – | 0.225 | > 28 | – | – |
| Cc1cc(C#N)cc(C)c1Oc1cc(Nc2ccc(C#N)cc2)nc(Nc2ccc(C#N)cc2)n1 | 0.11 | 13 | 117 | > 13 | < 1 | 2.18 | 2 | 0.0727 | 2 |
| Cc1ccnc2c1NC(=O)c1cccnc1N2C1CC1 [NEVIRAPINE] | – | > 15 | – | – | – | > 15 | – | – | – |
| Cc1cn([C@H]2C[C@H](N=[N+]=[N-])[C@@H](CO)O2)c(=O)[nH]c1=O [ZIDOVUDINE] | – | > 7.48 | > 1000 | 0.0082 | > 925 | 0.017 | > 448 | – | – |
| Cc1ccc(Nc2nc(Nc3ccc(C#N)cc3)cc(Oc3c(C)cc(C)cc3C)n2)cc1 | > 27.1 | 27.1 | < 1 | > 27.1 | < 1 | – | – | – | – |
| Cc1cc(C)c(Oc2cc(Nc3ccc(Cl)cc3)nc(Nc3cccc(C#N)c3)n2)c(C)c1 | > 12.6 | 12 | < 1 | > 12.6 | < 1 | – | – | – | – |
| Cc1cc(C#N)cc(C)c1Oc1cc(Nc2ccc(C#N)cc2)nc(Nc2cccc(C#N)c2)n1 | > 2.73 | 2.73 | < 1 | > 2.73 | < 1 | – | – | – | – |
| Cc1cc(C)c(Oc2cc(Nc3ccc(C#N)cc3)nc(Nc3ccc(C#N)cc3)n2)c(C)c1 | 0.78 | 5.98 | 8 | > 5.98 | < 1 | > 5.98 | < 1 | – | – |
| Cc1ccc(Nc2nc(Nc3ccc(Cl)cc3)cc(Oc3c(C)cc(C#N)cc3C)n2)cc1 | 31.4 | > 274 | > 9 | > 274 | 1 | > 274 | 1 | – | – |
| Cc1cccc(Nc2cc(Oc3c(C)cc(C#N)cc3C)nc(Nc3cccc(C#N)c3)n2)c1 | > 2.89 | 2.89 | < 1 | > 2.89 | < 1 | – | – | – | – |
| Cc1cc(C#N)cc(C)c1Oc1nc(Nc2ccc(C#N)cc2)nc(N)c1Br [ETRAVIRINE] | 0.0039 | 2.16 | – | – | – | 0.034 | – | – | – |
| Nc1ccn([C@H]2CS[C@@H](CO)O2)c(=O)n1 | 2.53 | > 87.2 | > 34 | 9.9 | > 9 | – | – | – | – |
| Cc1cc(C#N)cc(C)c1Oc1cc(Nc2ccc(Cl)cc2)nc(Nc2cccc(C#N)c2)n1 | > 3.15 | 3.15 | < 1 | > 3.15 | < 1 | – | – | – | – |
| CC(C)Nc1cccnc1N1CCN(C(=O)c2cc3cc(NS(C)(=O)=O)ccc3[nH]2)CC1 [DELAVIRDINE MESYLATE] | 0.027 | 28.2 | 1080 | – | – | > 28.2 | < 1 | – | – |
| Cc1ccc(Nc2nc(Nc3ccc(Cl)cc3)cc(Oc3c(C)cc(C)cc3C)n2)cc1 | > 48.2 | 48.2 | < 1 | > 48.2 | < 1 | – | – | – | – |
| O=c1[nH]cnc2c1ncn2[C@H]1CC[C@@H](CO)O1 [DIDANOSINE] | 76 | > 212 | > 3 | 82.1 | > 3 | – | – | – | – |
